# How the values were obtained:
# Test in all cases: In vitro antibacterial evaluation: minimum inhibitory concentration (MIC), broth dilution method
# Type in all cases: cell-based
# Conditions in all cases: 18 hours at 35° C.
# Enterococcus sp. = system: Enterococcus sp.
# Summary of the method: (§1)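 Test strains, among them recent clinical isolates carrying methicillin, penicillin and/or vancomycin resistance, were inoculated at 5×10^5 CFU/mL. A broth dilution series spanning 64-0.06 μg/mL in Muller-Hinton II […] (NCCLS M7-A2) defined the MIC as the lowest growth-inhibiting concentration.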
# Escherichia coli = system: Escherichia coli
# Summary of the method: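 Susceptibility determined by NCCLS-recommended broth dilution (M7-A2), Muller-Hinton II […]. Concentration span 64-0.06 μg/mL, inoculum 5×10^5 CFU/mL. Isolates include strains resistant to methicillin, penicillin and/or vancomycin.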
# Staphylococcus sp. = system: Staphylococcus sp.
# Summary of the method: as §1
# Streptococcus sp. = system: Streptococcus sp.
# Summary of the method: as §1
# [1] = Enterococcus faecalis (ATCC 29212)
# [2] = Enterococcus faecalis (GC 2242)
# [3] = Enterococcus faecalis (GC 4552)
# [4] = Enterococcus faecalis (GC 4553)
# [5] = Enterococcus faecalis (GC 4554)
# [6] = Coagulase Negative Staphylococcus (GC 4547)
# [7] = Coagulase Negative Staphylococcus (GC 4548)
# [8] = Coagulase Negative Staphylococcus (GC 4549)
# [9] = Coagulase Negative Staphylococcus (GC 4551)
# [10] = Staphylococcus aureus (ATCC 29213)
# [11] = Staphylococcus aureus (GC 1131)
# [12] = Staphylococcus aureus (GC 4541)
# [13] = Staphylococcus aureus (GC 4542)
# [14] = Staphylococcus aureus (GC 4544)
# [15] = Staphylococcus aureus (GC 4545)
# [16] = Staphylococcus aureus-SMITH (GC 4543)
# [17] = Staphylococcus haemolyticus (GC 4546)
# [18] = Streptococcus agalactiae (GC 4564)
# [19] = Streptococcus pneumoniae (GC 4565)
substance,measurement,setting,value
"Tri-N-[(phenylmethoxy)carbonyl]-cyclo[glycyl-β-methylphenylalanyltyrosyl-3-(2-iminoimidazolidin-4-yl)seryl-3-β-(2,3:4,6-di-O-isopropylidenehexopyranosyl)-2-iminoimidazolidin-4-yl]seryl-O-(tert-butyldimethylsilyl)seryl] [Example 249]",MIC Enterococcus avium (GC 4558),Enterococcus sp.; Enterococcus avium (GC 4558),32 µg/mL
same,MIC Enterococcus faecalis (ATCC 29212),Enterococcus sp.; [1],16 µg/mL
same,MIC Enterococcus faecalis (GC 2242),Enterococcus sp.; [2],32 µg/mL
same,MIC Enterococcus faecalis (GC 2691),Enterococcus sp.; Enterococcus faecalis (GC 2691),128 µg/mL
same,MIC Enterococcus faecalis (GC 3059),Enterococcus sp.; Enterococcus faecalis (GC 3059),128 µg/mL
same,MIC Enterococcus faecalis (GC 4552),Enterococcus sp.; [3],64 µg/mL
same,MIC Enterococcus faecalis (GC 4553),Enterococcus sp.; [4],64 µg/mL
same,MIC Enterococcus faecalis (GC 4554),Enterococcus sp.; [5],128 µg/mL
same,MIC Enterococcus faecalis (GC 6189),Enterococcus sp.; Enterococcus faecalis (GC 6189),64 µg/mL
same,MIC Enterococcus faecium (GC 2243),Enterococcus sp.; Enterococcus faecium (GC 2243),64 µg/mL
same,MIC Enterococcus faecium (GC 4556),Enterococcus sp.; Enterococcus faecium (GC 4556),32 µg/mL
same,MIC Enterococcus faecium (GC 4557),Enterococcus sp.; Enterococcus faecium (GC 4557),64 µg/mL
same,MIC Enterococcus faecalis (ATCC 29212),"Enterococcus sp.; broth dilution, strain ATCC 29212",16 µg/mL
same,MIC Enterococcus faecalis (GC 2242),"Enterococcus sp.; broth dilution, strain GC 2242",32 µg/mL
same,MIC Enterococcus faecium (GC 2243),"Enterococcus sp.; broth dilution, strain GC 2243",64 µg/mL
same,MIC Enterococcus faecalis (GC 2691),"Enterococcus sp.; broth dilution, strain GC 2691",128 µg/mL
same,MIC Enterococcus faecalis (GC 3059),"Enterococcus sp.; broth dilution, strain GC 3059",128 µg/mL
same,MIC Enterococcus faecalis (GC 4552),"Enterococcus sp.; broth dilution, strain GC 4552",64 µg/mL
same,MIC Enterococcus faecalis (GC 4553),"Enterococcus sp.; broth dilution, strain GC 4553",64 µg/mL
same,MIC Enterococcus faecalis (GC 4554),"Enterococcus sp.; broth dilution, strain GC 4554",128 µg/mL
same,MIC Enterococcus faecium (GC 4556),"Enterococcus sp.; broth dilution, strain GC 4556",32 µg/mL
same,MIC Enterococcus faecium (GC 4557),"Enterococcus sp.; broth dilution, strain GC 4557",64 µg/mL
same,MIC Enterococcus avium (GC 4558),"Enterococcus sp.; broth dilution, strain GC 4558",32 µg/mL
same,MIC Enterococcus faecalis (GC 6189),"Enterococcus sp.; broth dilution, strain GC 6189",64 µg/mL
same,MIC Escherichia coli (ATCC 25922),Escherichia coli,128 µg/mL
same,MIC Escherichia coli (GC 4559),Escherichia coli; Escherichia coli (GC 4559),128 µg/mL
same,MIC Escherichia coli (GC 4560),Escherichia coli; Escherichia coli (GC 4560),128 µg/mL
same,MIC Coagulase Negative Staphylococcus (GC 4547),Staphylococcus sp.; [6],64 µg/mL
same,MIC Coagulase Negative Staphylococcus (GC 4548),Staphylococcus sp.; [7],128 µg/mL
same,MIC Coagulase Negative Staphylococcus (GC 4549),Staphylococcus sp.; [8],128 µg/mL
same,MIC Coagulase Negative Staphylococcus (GC 4551),Staphylococcus sp.; [9],64 µg/mL
same,MIC Coagulase Negative Staphylococcus (GC 6257),Staphylococcus sp.; Coagulase Negative Staphylococcus (GC 6257),128 µg/mL
same,MIC Staphylococcus aureus (ATCC 29213),Staphylococcus sp.; [10],128 µg/mL
same,MIC Staphylococcus aureus (GC 1131),Staphylococcus sp.; [11],128 µg/mL
same,MIC Staphylococcus aureus (GC 3051),Staphylococcus sp.; Staphylococcus aureus (GC 3051),128 µg/mL
same,MIC Staphylococcus aureus (GC 3053),Staphylococcus sp.; Staphylococcus aureus (GC 3053),128 µg/mL
same,MIC Staphylococcus aureus (GC 4541),Staphylococcus sp.; [12],128 µg/mL
same,MIC Staphylococcus aureus (GC 4542),Staphylococcus sp.; [13],64 µg/mL
same,MIC Staphylococcus aureus (GC 4544),Staphylococcus sp.; [14],64 µg/mL
same,MIC Staphylococcus aureus (GC 4545),Staphylococcus sp.; [15],128 µg/mL
same,MIC Staphylococcus aureus-SMITH (GC 4543),Staphylococcus sp.; [16],128 µg/mL
same,MIC Staphylococcus haemolyticus (GC 4546),Staphylococcus sp.; [17],128 µg/mL
same,MIC Staphylococcus aureus (ATCC 29213),"Staphylococcus sp.; broth dilution, strain ATCC 29213",128 µg/mL
same,MIC Staphylococcus aureus (GC 1131),"Staphylococcus sp.; broth dilution, strain GC 1131",128 µg/mL
same,MIC Staphylococcus aureus (GC 3051),"Staphylococcus sp.; broth dilution, strain GC 3051",128 µg/mL
same,MIC Staphylococcus aureus (GC 3053),"Staphylococcus sp.; broth dilution, strain GC 3053",128 µg/mL
same,MIC Staphylococcus aureus (GC 4541),"Staphylococcus sp.; broth dilution, strain GC 4541",128 µg/mL
same,MIC Staphylococcus aureus (GC 4542),"Staphylococcus sp.; broth dilution, strain GC 4542",64 µg/mL
same,MIC Staphylococcus aureus-SMITH (GC 4543),"Staphylococcus sp.; broth dilution, strain GC 4543",128 µg/mL
same,MIC Staphylococcus aureus (GC 4544),"Staphylococcus sp.; broth dilution, strain GC 4544",64 µg/mL
same,MIC Staphylococcus aureus (GC 4545),"Staphylococcus sp.; broth dilution, strain GC 4545",128 µg/mL
same,MIC Staphylococcus haemolyticus (GC 4546),"Staphylococcus sp.; broth dilution, strain GC 4546",128 µg/mL
same,MIC Coagulase Negative Staphylococcus (GC 4547),"Staphylococcus sp.; broth dilution, strain GC 4547",64 µg/mL
same,MIC Coagulase Negative Staphylococcus (GC 4548),"Staphylococcus sp.; broth dilution, strain GC 4548",128 µg/mL
same,MIC Coagulase Negative Staphylococcus (GC 4549),"Staphylococcus sp.; broth dilution, strain GC 4549",128 µg/mL
same,MIC Coagulase Negative Staphylococcus (GC 4551),"Staphylococcus sp.; broth dilution, strain GC 4551",64 µg/mL
same,MIC Coagulase Negative Staphylococcus (GC 6257),"Staphylococcus sp.; broth dilution, strain GC 6257",128 µg/mL
same,MIC Streptococcus agalactiae (GC 4564),Streptococcus sp.; [18],128 µg/mL
same,MIC Streptococcus pneumoniae (ATCC 6301),Streptococcus sp.; Streptococcus pneumoniae (ATCC 6301),64 µg/mL
same,MIC Streptococcus pneumoniae (GC 1894),Streptococcus sp.; Streptococcus pneumoniae (GC 1894),32 µg/mL
same,MIC Streptococcus pneumoniae (GC 4565),Streptococcus sp.; [19],64 µg/mL
same,MIC Streptococcus pyogenes (GC 4563),Streptococcus sp.; Streptococcus pyogenes (GC 4563),128 µg/mL
same,MIC Streptococcus pneumoniae (ATCC 6301),"Streptococcus sp.; broth dilution, strain ATCC 6301",64 µg/mL
same,MIC Streptococcus pneumoniae (GC 1894),"Streptococcus sp.; broth dilution, strain GC 1894",32 µg/mL
same,MIC Streptococcus pyogenes (GC 4563),"Streptococcus sp.; broth dilution, strain GC 4563",128 µg/mL
same,MIC Streptococcus agalactiae (GC 4564),"Streptococcus sp.; broth dilution, strain GC 4564",128 µg/mL
same,MIC Streptococcus pneumoniae (GC 4565),"Streptococcus sp.; broth dilution, strain GC 4565",64 µg/mL
α-O-[(Butylamino)carbonyl]-cyclo[glycyl-β-methylphenylalanyl-O-(4-O-hexopyranosylhexopyranosyl)tyrosyl-3-(2-iminoimidazolidin-4-yl)seryl-3-(3-hexopyranosyl-2-iminoimidazolidin-4-yl)serylseryl] [Example 252],MIC Enterococcus avium (GC 4558),Enterococcus sp.; Enterococcus avium (GC 4558),>64 µg/mL
same,MIC Enterococcus faecalis (ATCC 29212),Enterococcus sp.; [1],>64 µg/mL
same,MIC Enterococcus faecalis (GC 2242),Enterococcus sp.; [2],>64 µg/mL
same,MIC Enterococcus faecalis (GC 4552),Enterococcus sp.; [3],>64 µg/mL
same,MIC Enterococcus faecalis (GC 4553),Enterococcus sp.; [4],>64 µg/mL
same,MIC Enterococcus faecalis (GC 4554),Enterococcus sp.; [5],>64 µg/mL
same,MIC Enterococcus faecium (GC 2243),Enterococcus sp.; Enterococcus faecium (GC 2243),>64 µg/mL
same,MIC Enterococcus faecium (GC 4556),Enterococcus sp.; Enterococcus faecium (GC 4556),>64 µg/mL
same,MIC Enterococcus faecium (GC 4557),Enterococcus sp.; Enterococcus faecium (GC 4557),>64 µg/mL
same,MIC Escherichia coli (ATCC 25922),Escherichia coli,>64 µg/mL
same,MIC Coagulase Negative Staphylococcus (GC 4547),Staphylococcus sp.; [6],>64 µg/mL
same,MIC Coagulase Negative Staphylococcus (GC 4548),Staphylococcus sp.; [7],>64 µg/mL
same,MIC Coagulase Negative Staphylococcus (GC 4549),Staphylococcus sp.; [8],>64 µg/mL
same,MIC Coagulase Negative Staphylococcus (GC 4551),Staphylococcus sp.; [9],>64 µg/mL
same,MIC Coagulase Negative Staphylococcus (ID-3941),Staphylococcus sp.; Coagulase Negative Staphylococcus (ID-3941),>64 µg/mL
same,MIC Staphylococcus aureus (ATCC 29213),Staphylococcus sp.; [10],>64 µg/mL
same,MIC Staphylococcus aureus (GC 1131),Staphylococcus sp.; [11],>64 µg/mL
same,MIC Staphylococcus aureus (GC 4541),Staphylococcus sp.; [12],>64 µg/mL
same,MIC Staphylococcus aureus (GC 4542),Staphylococcus sp.; [13],>64 µg/mL
same,MIC Staphylococcus aureus (GC 4544),Staphylococcus sp.; [14],>64 µg/mL
same,MIC Staphylococcus aureus (GC 4545),Staphylococcus sp.; [15],>64 µg/mL
same,MIC Staphylococcus aureus-SMITH (GC 4543),Staphylococcus sp.; [16],>64 µg/mL
same,MIC Staphylococcus haemolyticus (GC 4546),Staphylococcus sp.; [17],>64 µg/mL
same,MIC Streptococcus agalactiae (GC 4564),Streptococcus sp.; [18],>64 µg/mL
same,MIC Streptococcus pneumoniae (GC 4565),Streptococcus sp.; [19],>64 µg/mL
same,MIC Streptococcus pyogenes (ID-3187),Streptococcus sp.; Streptococcus pyogenes (ID-3187),>64 µg/mL
